Reference: patent publication US7794723B2, “Antigenic peptides derived from telomerase” (GemVax AS, priority 1998, dated 2010)
Where no end group is shown, it is not given here.

Legend:
[1] = test system: tumor infiltrating lymphocytes (TILs) obtained from a patient with advanced pancreatic cancer; assay: Reactivity of tumor infiltrating lymphocytes (TILs), standard proliferation assay; type: cell-based, human; settings: CD3+, CD4+, CD8− T cell line
From the text: FIGS. 3 and 4 (FIG. 3 and FIG. 4) show the reactivity of tumor infiltrating lymphocytes (TILs) obtained from a patient with advanced pancreatic cancer. The T cells were obtained from a tumor biopsy and were successfully propagated in vitro to establish a T cell line. The T cell line was CD3+, CD4+ and CD8−, and proliferated specifically in response to the telomerase peptides. The results in FIG. 3 show T cells that recognize the peptides with SEQ ID NOs: 2 and 3 when compared to controls with medium alone. The results in FIG. 4 show T cells that recognize the peptide with SEQ ID NO:2. The TILs were expanded by co-culturing with recombinant human interleukin 2 (rIL-2) and tested after 14 days in standard proliferation assay using peptides with SEQ ID NOs: 2, 3, 4 and 7.

[2] = test system: peripheral blood T cells from a patient with colon cancer; assay: In vitro stimulation of peripheral blood T cells from a cancer patient, T cell proliferative assay (3H-thymidine); type: cell-based, human; settings: FIG. 2; peptide 30 μg/ml; 10^5 mononuclear cells; cultures without peptide as control
Procedure: In vitro culture was performed as follows: Triplicates of 105 mononuclear cells were incubated for […] in X-VIVO 10 medium supplemented with 15% pooled heat inactivated human serum in a humidified incubator in 5% CO2. Peptides were present throughout culture at a final concentration of 30 μg/ml in the medium. Cultures without peptide served as control. […] Furthermore, one component of the telomerase specific response in this patient is directed against the peptide with SEQ ID NO:4 described here. […] The figure depicts the results of conventional T cell proliferative assays, where peripheral blood mononuclear cells (10^5) were cultured with peptides as indicated for 7 days in triplicates before harvesting. To measure the proliferative capacity of the cultures, 3H-thymidine (3.7×10^4 Bq/well) was added to the culture overnight before harvesting. Values are given as mean counts per minute (cpm) of the triplicates.

[3] = test system: hTERT expressing target cells (Jurkat) transfected with HLA-A2 (A2/K^b); settings: FIG. 1; T cells from mice primed with the peptide; target cells pulsed with control peptide (influenza 58-66); different effector to target ratios; 4 hours
[4] = FIG. 3, compared to controls with medium alone

DGLRPIVNMDYVVGAR [SEQ ID NO:3]
recognition of peptide by TIL T cells (proliferation) [1, 4]: recognize

EARPALLTSRLRFIPK [SEQ ID NO:2]
recognition of peptide by TIL T cells (proliferation) [1, 4]: recognize
recognition of peptide by TIL T cells (proliferation) ([1]; FIG. 4): recognize

GVPEYGCVVNLRKVVNF (GVPEYGCVVNLRKTVVNF) [SEQ ID NO:4]
proliferative response of T cells (3H-thymidine, mean cpm) [2]: proliferative response above background values

ILAKFLHWL [SEQ ID NO:9]
specific cytotoxicity (killing of HLA-A2 transfected Jurkat cells) [3]: Specific cytotoxicity above background was observed at all effector to target ratios
